From US4552877A, “Nb -Quaternary derivatives of sandwicine and isosandwicine methods and intermediate products in the manufacture of their derivatives and methods of using same and pharmaceutical compositions thereof” (Kali-Chemie Pharma GmbH, priority 1979, dated 1985)
Counter-ions that a name gives are not always drawn. Like-named read-outs stand apart in the source and are kept apart here.

Columns and labels:
[1] = acute toxicity (LD50, 7th day after application); assay type: in vivo, mouse; conditions: mouse, in vivo, male NMRI-mice, mortality on 7th day
Description: (§1) The acute toxicity of the compounds is determined in male NMRI-mice (body weight range 18-22 g) after oral (p.o) and intraperitonal (i.p.) administration. The LD50 is defined as that dose in μmole/kg which causes a 50% mortality rate of the test animals on the 7th day after application. The calculation of the LD50 is carried out by probitanalysis (see L. Cavalli-Sforza, Grundbegriffe der Biometrie, Gustav Fischer Verlag, Stuttgart, (1964)).

[2] = tested on: isolated left atria of female guinea pigs; assay: functional refractory period (FRP) and contraction force (CF) in isolated left atria, double stimulus method of Govier; parameters: species or system guinea pig; conditions: for IC25 / EC25: Cavia porcellus, 0.3 h; for IC25: read-out: CF (concentration reducing contraction force to 75% of starting value); for EC25: read-out: FRP (concentration prolonging functional refractory period to 125% of starting value); for ratio between contraction force-reducing dose and functional refractory period-prolonging dose (CF/FRP): indication of the therapeutic range of the antiarrhythmic effect on the isolated organ, 18 min
Description: The prolongation of the functional refractory period (FRP) and the contraction force (CF) in the isolated left atria of female guinea pigs (albino Pirbright-white guinea pigs, body weight 300-400 g) are determined according to the double stimulus method of Govier (see W.C. Govier, J. Pharmakol. Exp. Ther. 148 (1965) pp 100-105). The concentrations which are given in the table below are the concentrations in μmol/l which 18 minutes after application leads to a prolongation of the functional refractory period to 125% or respectively to a reduction of the contraction force to 75% of the starting value. Furthermore, the ratio between contraction force-reducing dose and functional refractory period-prolonging dose is given. This ratio is an indication of the therapeutic range of the antiarrhythmic effect on the isolate organ (see K. Gref, Verh. Dtsch. Ges. Kreislaufforsch. 35 (1969) pp 88-97).

male NMRI-mice [3] = assay: minimum symptom dose (procedure of Campbell and Richter); assay type: in vivo, mouse; conditions: i.p., changes in behavior in 2 out of 3 mice
Description: The minimum symptom dose is determined in male NMRI-mice (body weight range 18-22 g) according to the procedure of Campbell and Richter (see D.E.S. Campbell and W. Richter, Acta Pharmacol Toxicol, 25 (1967), pp 345-363). The minimum symptom dose is defined as that dose in μmol/kg which after i.p. administration causes changes in behavior in 2 out of 3 mice. The minimum symptom dose is a measure for evaluating undesirable side effects.

male NMRI-mice [4] = assay: acute toxicity (LD50, 7th day after application); assay type: in vivo, mouse; conditions: mortality on 7th day, 10080 min; for LD50 p.o.: oral
Description: as §1

[5] = ip, intraperitoneal, read-out: LD50 i.p.
[6] = isolated guinea pig left atria, 18 minutes after application

Which LD50 at 168 h [1, 5] does the source give for `CCC[N+]12C(O)C(CC)C3CC1C1N(C)c4ccccc4C14CC2C3C4O` (stereo not drawn) [Neo-Gilurytmal, Nb -propylajmalinium hydrogen tartrate, reference compound] here?
Its LD50 at 168 h is 41 µmol/kg.

What about the LD50 at 168 h ([1]; po, read-out: LD50 p.o.) of the same molecule?
Its LD50 at 168 h is 65 µmol/kg.

And the IC25 [2, 6]?
The IC25 was 0.26 µM.

And the EC25 [2, 6]?
The EC25 was 1.8 µM.

What about the “ratio between contraction force-reducing dose and functional refractory period-prolonging dose (CF/FRP)” value [2] of the same molecule?
Its value is 0.15.

And the “Min. Symptom-dose” value (male NMRI-mice [3])?
The value was 12 µmol/kg.

For `CCC[N+]12C(O)C(CC)C3CC1C1N(C)c4ccc(Br)cc4C14CC2C3C4O` (stereo not drawn) [Example 2.b, Nb-n-propyl-10-bromosandwicinium hydrogen tartrate], which LD50 at 168 h [1, 5] is on record?
The LD50 at 168 h was 101 µmol/kg.

What about the LD50 p.o. (male NMRI-mice [4]) of the same molecule?
Its LD50 p.o. is 1133 µmol/kg.

And the IC25 [2, 6]?
The IC25 was 4.7 µM.

And the EC25 [2, 6]?
Its EC25 is 1.4 µM.

And the “ratio between contraction force-reducing dose and functional refractory period-prolonging dose (CF/FRP)” value [2]?
Its value is 3.3.

And the “Min. Symptom-dose” value (male NMRI-mice [3])?
Its value is 42 µmol/kg.

For `CCC[N+]12C(O)C(CC)C3CC1C1N(C)c4ccc(Br)cc4C14CC2C3C4O` (stereo not drawn) [Example 12.b, Nb-n-propyl-10-bromoisosandwicinium hydrogen tartrate], which LD50 i.p. (male NMRI-mice [4]; intraperitoneal) is on record?
Its LD50 i.p. is 118 µmol/kg.

What about the LD50 p.o. (male NMRI-mice [4]) of the same molecule?
Its LD50 p.o. is 566 µmol/kg.

And the “ratio between contraction force-reducing dose and functional refractory period-prolonging dose (CF/FRP)” value [2]?
Its value is 3.6.

And the “CF (concentration reducing contraction force to 75% of starting value)” value [2, 6]?
Its value is 6.5 µmol/L.

And the “FRP (concentration prolonging functional refractory period to 125% of starting value)” value [2, 6]?
The value was 1.8 µmol/L.

And the “Min. Symptom-dose” value (male NMRI-mice [3])?
The value was 10 µmol/kg.

For `CCC1C2CC3C4N(C)c5ccc(Br)cc5C45CC(C2C5O)[N+]3(C)C1O` (stereo not drawn) [Example 1.b, Nb-methyl-10-bromosandwicinium hydrogen tartrate], which LD50 at 168 h [1, 5] is on record?
Its LD50 at 168 h is 325 µmol/kg.

What about the LD50 at 168 h ([1]; po, read-out: LD50 p.o.) of the same molecule?
Its LD50 at 168 h is 1910 µmol/kg.

And the IC25 [2, 6]?
The IC25 was 20.2 µM.

And the EC25 [2, 6]?
The EC25 was 3.2 µM.

And the “ratio between contraction force-reducing dose and functional refractory period-prolonging dose (CF/FRP)” value [2]?
The value was 6.4.

And the “Min. Symptom-dose” value (male NMRI-mice [3])?
The value was 11 µmol/kg.

With `CCCCCC[N+]12C(O)C(CC)C3CC1C1N(C)c4ccc(Br)cc4C14CC2C3C4O` (stereo not drawn) [Example 4.b, Nb-n-hexyl-10-bromosandwicinium hydrogen tartrate] as the molecule, how does the LD50 at 168 h [1, 5] read?
Its LD50 at 168 h is 112 µmol/kg.

What about the LD50 at 168 h ([1]; po, read-out: LD50 p.o.) of the same molecule?
Its LD50 at 168 h is > 2300 µmol/kg.

And the IC25 [2, 6]?
Its IC25 is 2 µM.

And the EC25 [2, 6]?
Its EC25 is 4.3 µM.

What about the “ratio between contraction force-reducing dose and functional refractory period-prolonging dose (CF/FRP)” value [2] of the same molecule?
The value was 0.5.

And the “Min. Symptom-dose” value (male NMRI-mice [3])?
Its value is 39 µmol/kg.

Which LD50 at 168 h [1, 5] does the source give for `CCC1C2CC3C4N(C)c5ccc(Br)cc5C45CC(C2C5O)[N+]3(CC(O)CN2CCCCC2)C1O` (stereo not drawn) [Example 8, Nb-[2-hydroxy-3-(1-piperidinyl)propyl]-10-bromosandwicinium bishydrogen tartrate] here?
The LD50 at 168 h was 169 µmol/kg.

What about the LD50 at 168 h ([1]; po, read-out: LD50 p.o.) of the same molecule?
Its LD50 at 168 h is 1190 µmol/kg.

What about the IC25 [2, 6] of the same molecule?
The IC25 was 3.4 µM.

And the EC25 [2, 6]?
Its EC25 is 8.3 µM.

What about the “ratio between contraction force-reducing dose and functional refractory period-prolonging dose (CF/FRP)” value [2] of the same molecule?
Its value is 0.4.

And the “Min. Symptom-dose” value (male NMRI-mice [3])?
The value was 59 µmol/kg.
